Assay results published in patent US10221138B2, “Biaryl derivatives as GPR120 agonists” (LG CHEM, LTD., priority 2013, dated 2019).
pEC50: −log10 of the molar value.

Molecular target: T1, hGPR120 (Homo sapiens, UniProt Q5NUL3)
T1 construct: expressed in transfected cells; host or cells: CHO-K1
T1 sequence (Q5NUL3 1-361): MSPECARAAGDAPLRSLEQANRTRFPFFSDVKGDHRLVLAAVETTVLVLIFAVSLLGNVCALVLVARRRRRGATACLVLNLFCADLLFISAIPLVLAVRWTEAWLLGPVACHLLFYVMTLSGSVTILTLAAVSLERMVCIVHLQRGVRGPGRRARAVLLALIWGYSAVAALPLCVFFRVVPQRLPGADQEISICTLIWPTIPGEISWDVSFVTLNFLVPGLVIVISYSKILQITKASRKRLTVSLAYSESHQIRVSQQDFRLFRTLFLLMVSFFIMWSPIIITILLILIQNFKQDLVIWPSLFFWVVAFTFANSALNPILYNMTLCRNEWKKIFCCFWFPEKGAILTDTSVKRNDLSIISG
Test: Measurement of activity of GPR120 agonist (cell-based calcium fluorescence assay)
Details: CHO-K1 cells expressing Ga16 and hGPR120, Calcium 5 dye fluorescence; activity class; read-out: EC50
Method: CHO-K1 cells expressing Ga16 and hGPR120 were dispensed into each well of a 96-well plate (3×10^4 cells/100 μl/well) and then incubated in 5% CO2, 37° C. incubator for 18 hours. Each well was treated with 100 μl of Calcium 5 dye (Molecular Devices) solution including 2% DMSO and then incubated in 5% CO2, 37° C. incubator for 1 hour. Serially diluted GPR120 agonists were prepared to a final concentration of 0.5% DMSO in a 96-well plate.
Fluorescence increased by the serially diluted GPR120 agonists is calculated as a relative percent (%) value based on the fluorescence represented by the treatment of 1% DMSO only. […] The calculation of measurement was carried out by using statistical software (Prizm).
Activity is denoted based on the following criteria: […]

| pEC50 | Structure (SMILES) |
| --- | --- |
| > 6.70 | O=C(O)CCCOc1c(F)cc(-c2ccccc2OCC2CC2)cc1F [Example 54, 4-(2′-cyclopropylmethoxy-3,5-difluoro-biphenyl-4-yloxy)-butyric acid] |
| > 6.70 | O=C(O)CCCOc1c(F)cc(-c2ccccc2OC2CCCC2)cc1F [Example 55, 4-(2′-cyclopentyloxy-3,5-difluoro-biphenyl-4-yloxy)-butyric acid] |
| 5.70 to 6.70 | O=C(O)CCCOc1ccc(-c2ccccc2OC2CCCC2)cc1 [Example 56, 4-(2′-cyclopentyloxy-biphenyl-4-yloxy)-butyric acid] |
| 5.70 to 6.70 | CC(C)Oc1ccccc1-c1ccc(OCCCC(=O)O)cc1 [Example 57, 4-(2′-isopropoxy-biphenyl-4-yloxy)-butyric acid] |
| 5.70 to 6.70 | O=C(O)CCCOc1ccc(-c2ccccc2OCC2CC2)cc1 [Example 58, 4-(2′-cyclopropylmethoxy-biphenyl-4-yloxy)-butyric acid] |
| > 6.70 | CC(CCOc1c(F)cc(-c2cccnc2SC2CCC2)cc1F)C(=O)O (stereo not shown) [Example 59, 4-[4-(2-cyclobutylsulfanyl-pyridin-3-yl)-2,6-difluoro-phenoxy]-2-methyl-butyric acid] |
| > 6.70 | O=C(O)C1CC1COc1c(F)cc(-c2cccnc2SC2CCC2)cc1F (stereo not shown) [Example 60, 2-[4-(2-cyclobutylsulfanyl-pyridin-3-yl)-2,6-difluoro-phenoxymethyl]-cyclopropanecarboxylic acid] |
| 5.70 to 6.70 | O=C(O)CCCOc1cc(F)c(-c2cccnc2SC2CCC2)cc1F [Example 61, 4-[4-(2-cyclobutylsulfanyl-pyridin-3-yl)-2,5-difluoro-phenoxy]-butyric acid] |
| 5.70 to 6.70 | O=C(O)CCCOc1cc(F)c(-c2cccc(SC3CCC3)n2)cc1F [Example 62, 4-[4-(6-cyclobutylsulfanyl-pyridin-2-yl)-2,5-difluoro-phenoxy]-butyric acid] |
| 4.70 to 5.70 | CC(C)(C)Sc1ncccc1-c1cc(F)c(OCCCC(=O)O)c(F)c1 [Example 63, 4-[4-(2-tert-butylsulfanyl-pyridin-3-yl)-2,6-difluoro-phenoxy]-butyric acid] |
| > 6.70 | CCCSc1ncccc1-c1cc(F)c(OCCCCCC(=O)O)c(F)c1 [Example 64, 6-[2,6-difluoro-4-(2-propylsulfanyl-3-pyridyl)phenoxy]hexanoic acid] |
| > 6.70 | CC(C)=Cc1cccc(-c2cc(F)c(OCCCC(=O)O)c(F)c2)n1 [Example 65, 4-{2,6-difluoro-4-[6-(2-methyl-propenyl)-pyridin-2-yl]-phenoxy}-butyric acid] |
| 5.70 to 6.70 | O=C(O)CCCOc1cc(F)c(-c2cccnc2SC2CCC2)c(F)c1 [Example 67, 4-[4-(2-cyclobutylsulfanyl-pyridin-3-yl)-3,5-difluoro-phenoxy]-butyric acid] |
| 5.70 to 6.70 | O=C(O)CCCOc1c(F)cc(-c2cccnc2OC2CCOCC2)cc1F [Example 68, 4-{2,6-difluoro-4-[2-(tetrahydro-pyran-4-yloxy)-pyridin-3-yl]-phenoxy}-butyric acid] |
| 4.70 to 5.70 | COCCOc1ncccc1-c1cc(F)c(OCCCC(=O)O)c(F)c1 [Example 71, 4-{2,6-difluoro-4-[2-(2-methoxy-ethoxy)-pyridin-3-yl]-phenoxy}-butyric acid] |
| 5.70 to 6.70 | O=C(O)CCCOc1c(F)cc(-c2cccnc2N2CCCC2)cc1F [Example 72, 4-[2,6-difluoro-4-(2-pyrrolidin-1-yl-3-pyridyl)phenoxy]butanoic Acid] |
| 5.70 to 6.70 | O=C(O)CCCOc1c(F)cc(-c2cccnc2NC2CCCC2)cc1F [Example 73, 4-[4-[2-(cyclopentylamino)-3-pyridyl]-2,6-difluoro-phenoxy]butanoic acid] |
| 5.70 to 6.70 | O=C(O)CCCOc1c(F)cc(-c2cccnc2NCC2CC2)cc1F [Example 74, 4-[4-[2-(cyclopropylmethylamino)-3-pyridyl]-2,6-difluoro-phenoxy]butanoic acid] |
| 5.70 to 6.70 | O=C(O)CCCOc1c(F)cc(-c2cccc(NCC3CC3)n2)cc1F [Example 75, 4-[4-[6-(cyclopropylmethylamino)-2-pyridyl]-2,6-difluoro-phenoxy]butanoic acid] |
